Assay results published in patent publication EP1388586A2, “Identification of broadly reactive DR restricted epitopes” (priority 1998, dated 1999).
pIC50: −log10 of the molar value. Read-outs that look alike come from different tables or passages of the source. Square brackets hold non-standard residues; d marks the D form. Ends that are not written are not given here. Peptide text beside a SMILES is read from it.

Legend:
DRB1*0101 (DR1) = target: T1, DRB1*0101 (DR1) (Homo sapiens, UniProt P01903+P01911, A100R/D57E/F55L/F60I/F76Y/I96L/L162R/M171V/P40L/Q125E/R42F/V115G/Y59C); assay: Class II peptide-binding assay, DR1;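 also: competition assay: unlabeled test peptides inhibit binding of a radiolabeled probe peptide to purified DR, with half-maximal inhibition taken as an approximate dissociation constant Kd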
T1 construct: used as sources of human HLA class II molecules; endogenous in cells; host or cells: LG2 (EBV-transformed homozygous B cell line)

DRB5*0101 (DR2w2a) = target: T2, DRB5*0101 (DR2w2a) (Homo sapiens, UniProt P01903+Q30154); assay: Class II peptide-binding assay, DR2w2a (DR2w2B2);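 also: competitive binding assay: unlabeled peptide inhibiting binding of a radiolabeled probe peptide to purified DR molecules at pH 7.0, IC50 approximating Kd, lower means stronger binding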
T2 construct: used as sources of human HLA class II molecules; endogenous in cells; host or cells: GM3107 (EBV-transformed homozygous B cell line)

DRB1*0401 (DR4w4) = target: T3, DRB1*0401 (DR4w4) (Homo sapiens, UniProt P01903+P01911, A100K/A169T/F76Y/I96L/K127E/L162R/M171V/N62H/P40V/Q125Y/R42H/S133A/S149N/S66Y/V115G/V209L/W38E); assay: Class II peptide-binding assay, DR4w4;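 also: unlabeled test peptides compete with a radiolabeled probe peptide for binding to affinity-purified HLA-DR, with DR amount titrated to capture a small fraction of label, IC50 approximating Kd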
T3 construct: used as sources of human HLA class II molecules; endogenous in cells; host or cells: PREISS (EBV-transformed homozygous B cell line)

DRB10404 (DR4w14) = target: T4, DRB10404 (DR4w14) (Homo sapiens, UniProt P01903+P01911, A100R/A169T/F76Y/I96L/K127E/L162R/M171V/N62H/P40V/Q125Y/R42H/S133A/S149N/S66Y/V209L/W38E); assay: Class II peptide-binding assay, DR4w14;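 also: unlabeled peptides compete with a radiolabeled probe for binding to affinity-purified HLA-DR, neutral pH, class II amount titrated to bind a small fraction of label, IC50 approximates Kd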
T4 construct: used as sources of human HLA class II molecules; endogenous in cells; host or cells: BIN40 (EBV-transformed homozygous B cell line)

DRB1*1101 (DR5w11) = target: T5, DRB1*1101 (DR5w11) (Homo sapiens, UniProt P01903+P01911, A100R/A169T/A87E/I96F/K41T/L162R/M171V/P40S/Q125H/Q178H/Q39Y/Q99D/R42S/S66Y/T262R/V115G/W38E); assay: Class II peptide-binding assay, DR5w11;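 also: competition by unlabeled test peptide against iodinated probe peptide binding to affinity-purified HLA-DR, class II amount titrated beforehand, half-maximal inhibitory concentration read as approximate Kd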
T5 construct: used as sources of human HLA class II molecules; endogenous in cells; host or cells: SWEIG (EBV-transformed homozygous B cell line)
T5 sequence (P01903 26-254, other chains not shown): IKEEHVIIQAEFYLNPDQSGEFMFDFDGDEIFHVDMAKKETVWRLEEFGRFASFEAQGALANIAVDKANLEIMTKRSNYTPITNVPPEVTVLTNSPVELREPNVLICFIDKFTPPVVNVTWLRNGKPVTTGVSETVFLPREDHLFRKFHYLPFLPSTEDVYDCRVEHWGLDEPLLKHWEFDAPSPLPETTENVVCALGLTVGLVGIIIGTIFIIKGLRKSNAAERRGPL

DRB1*0701 (DR7) = DRB1*0701 (DR7) (Homo sapiens, UniProt P01903+P01911, A100R/A102G/A103Q/D57E/D86V/E43K/F76Y/K127E/L162R/M171V/P40G/Q125H/Q99D/R33Q/R42Y/R54Q/S133A/S66F/T210M/V115G/Y107V/Y59L/Y89S); assay: Class II peptide-binding assay, DR7;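 also: unlabeled peptides compete with an iodinated probe peptide for binding to affinity-purified HLA-DR at neutral pH, DR amount titered to bind a small tracer fraction, IC50 approximating Kd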
Method: Class II peptide-binding assays. […] These assays were chosen as to be representative of the most common DR alleles.
Radiolabeled peptides were iodinated using the chloramine-T method. […] In appropriate stoichiometric conditions, the IC50 of an unlabeled test peptide to the purified DR is a reasonable approximation of the affinity of interaction (Kd). Peptides were tested in two to four completely independent experiments. […] Final detergent concentration in the incubation mixture was 0.05% Nonidet P-40. Assays were performed at pH 7.0 with the exception of DR3, which was performed at pH 4.5, and DRw53, which was performed at pH 5.0.
All subsequent inhibition and direct binding assays were the performed using these class II concentrations.

[1] = read-out: DR1 nM (In IC50 Format), purified HLA DR1
[2] = read-out: DR2w2B2 nM (In IC50 Format), purified HLA DR2w2β2
[3] = read-out: DR4w4 nM (In IC50 Format), purified HLA DR4w4
[4] = read-out: DR4w14 nM (In IC50 Format), purified HLA DR4w14
[5] = read-out: DR5w11 nM (In IC50 Format), purified HLA DR5w11
[6] = read-out: DR7 nM (In IC50 Format), purified HLA DR7
[7] = read-out: DR1 nM, Table VIII, In IC50 Format
[8] = read-out: DR2w2B2 nM, Table VIII, In IC50 Format
[9] = read-out: DR4w4 nM, Table VIII, In IC50 Format
[10] = read-out: DR4w14 nM, Table VIII, In IC50 Format
[11] = read-out: DR5w11 nM, Table VIII, In IC50 Format
[12] = read-out: DR7 nM, Table VIII, In IC50 Format

| Compound | pIC50 (DRB1*0101 (DR1); [1]) | pIC50 (DRB5*0101 (DR2w2a); [2]) | pIC50 (DRB1*0401 (DR4w4); [3]) | pIC50 (DRB10404 (DR4w14); [4]) | pIC50 (DRB1*1101 (DR5w11); [5]) | pIC50 (DRB1*0701 (DR7); [6]) | pIC50 (DRB1*0101 (DR1); [7]) | pIC50 (DRB5*0101 (DR2w2a); [8]) | pIC50 (DRB1*0401 (DR4w4); [9]) | pIC50 (DRB10404 (DR4w14); [10]) | pIC50 (DRB1*1101 (DR5w11); [11]) | pIC50 (DRB1*0701 (DR7); [12]) | further results |
| --- | --- | --- | --- | --- | --- | --- | --- | --- | --- | --- | --- | --- | --- |
| CC[C@H](C)[C@H](NC(=O)[C@H](C)NC(=O)CNC(=O)[C@H](Cc1ccccc1)NC(=O)[C@H](CC(N)=O)NC(=O)[C@H](CC(N)=O)NC(=O)[C@H](N)CO)C(=O)N[C@@H](CC(C)C)C(=O)N[C@@H](CO)C(=O)N[C@@H](CO)C(=O)N[C@H](C(=O)N[C@@H](CC(N)=O)C(=O)N[C@H](C(=O)NCC(N)=O)C(C)C)[C@@H](C)O [Peptide 735.05] (H-[dS]NNFGAILSSTNVG-NH2) | 7.31 | 5.54 | 6.56 | 6.42 | 4.70 | 4.90 |  |  |  |  |  |  |  |
| C[C@H](NC(=O)[C@H](C)NC(=O)[C@H](C)NC(=O)[C@H](Cc1ccc(O)cc1)NC(=O)[C@H](C)NC(=O)[C@@H](C)N)C(=O)N[C@@H](C)C(=O)N[C@H](C(=O)N[C@@H](C)C(=O)N[C@@H](CCCCN)C(=O)N[C@@H](C)C(=O)N[C@@H](C)C(=O)N[C@H](C)C(N)=O)[C@@H](C)O [Peptide 762.02] (H-[dA]AYAAAATAKAA[dA]-NH2) | 8.77 | 6.98 | 8.70 | 5.85 | 7.59 | 6.16 |  |  |  |  |  |  |  |
| CC(C)C[C@H](NC(=O)[C@@H](NC(=O)[C@@H](NC(=O)[C@H](CCC(N)=O)NC(=O)[C@H](CCCNC(=N)N)NC(=O)[C@H](CCC(N)=O)NC(=O)[C@H](Cc1ccccc1)NC(=O)[C@H](C)NC(=O)[C@H](C)NC(=O)[C@H](N)Cc1ccc(O)cc1)[C@@H](C)O)[C@@H](C)O)C(=O)N[C@@H](CCCCN)C(=O)N[C@@H](C)C(=O)N[C@@H](C)C(=O)N[C@H](C)C(N)=O [Peptide 781.16] (H-[dY]AAFQRQTTLKAA[dA]-NH2) | 8.52 | 6.81 | 8.42 | 8.15 | 8.00 | 5.56 |  |  |  |  |  |  |  |
| CC[C@H](C)[C@H](NC(=O)CNC(=O)[C@@H](NC(=O)[C@H](Cc1ccccc1)NC(=O)[C@H](CCCCN)NC(=O)[C@H](CO)NC(=O)[C@H](CC(N)=O)NC(=O)[C@H](C)NC(=O)[C@H](CCCCN)NC(=O)[C@@H](NC(=O)[C@H](Cc1ccc(O)cc1)NC(=O)[C@@H](N)CCC(N)=O)[C@@H](C)CC)[C@@H](C)CC)C(=O)N[C@H](C(=O)N[C@@H](CCC(=O)O)C(=O)N[C@@H](CC(C)C)C(=O)N[C@@H](CCCCN)C(=O)N[C@@H](CCCCN)C(N)=O)[C@@H](C)O [Peptide 812.01] |  |  |  |  |  |  |  |  |  |  |  |  | pIC50 (DRB1*0101 (DR1); purified HLA DR1, read-out: DR1 nM (In IC50 Format)): 7.09; pIC50 (DRB5*0101 (DR2w2a); purified HLA DR2w2β2, read-out: DR2w2B2 nM (In IC50 Format)): 7.80; pIC50 (DRB1*0401 (DR4w4); purified HLA DR4w4, read-out: DR4w4 nM (In IC50 Format)): 6.39; pIC50 (DRB10404 (DR4w14); purified HLA DR4w14, read-out: DR4w14 nM (In IC50 Format)): 4.78; pIC50 (DRB1*1101 (DR5w11); purified HLA DR5w11, read-out: DR5w11 nM (In IC50 Format)): 7.54; pIC50 (DRB1*0701 (DR7); purified HLA DR7, read-out: DR7 nM (In IC50 Format)): 6.45 |
| C[C@H](NC(=O)[C@H](C)NC(=O)[C@H](Cc1ccccc1)NC(=O)[C@H](C)NC(=O)[C@@H](C)N)C(=O)N[C@@H](C)C(=O)N[C@@H](C)C(=O)N1CCC[C@H]1C(=O)N[C@@H](CCCCN)C(=O)N[C@@H](C)C(=O)N[C@@H](C)C(=O)N[C@@H](C)C(=O)N[C@H](C)C(N)=O [Peptide 828.05] (H-[dA]AFAAAAPKAAA[dA]-NH2) |  |  |  |  |  |  | 8.72 | 7.81 | 6.81 | 5.20 | 6.98 | 5.88 |  |
| C[C@H](NC(=O)[C@H](N)Cc1ccc(O)cc1)C(=O)N[C@@H](C)C(=O)N[C@@H](Cc1ccccc1)C(=O)N[C@@H](C)C(=O)N[C@@H](C)C(=O)N[C@@H](C)C(=O)N[C@@H](C)C(=O)N1CCC[C@H]1C(=O)N[C@@H](CCCCN)C(=O)N[C@@H](C)C(=O)N[C@@H](C)C(=O)N[C@@H](C)C(=O)N[C@H](C)C(N)=O [Peptide 828.06] (H-[dY]AAFAAAAPKAAA[dA]-NH2) |  |  |  |  |  |  | 8.70 | 7.72 | 6.67 | 5.00 | 6.63 | 5.72 |  |
| C[C@H](NC(=O)[C@H](N)Cc1ccc(O)cc1)C(=O)N[C@@H](C)C(=O)N[C@@H](Cc1ccccc1)C(=O)N[C@@H](C)C(=O)N[C@@H](C)C(=O)N[C@@H](C)C(=O)N[C@@H](C)C(=O)N[C@H](C(=O)N[C@@H](CCCCN)C(=O)N[C@@H](C)C(=O)N[C@@H](C)C(=O)N[C@@H](C)C(=O)N[C@H](C)C(N)=O)[C@@H](C)O [Peptide 828.10] (H-[dY]AAFAAAATKAAA[dA]-NH2) |  |  |  |  |  |  | 8.72 | 7.70 | 8.47 | 6.95 | 7.65 | 5.90 |  |
| CC(C)C[C@H](NC(=O)[C@H](CCCCN)NC(=O)[C@H](CC(C)C)NC(=O)[C@@H](NC(=O)[C@H](CC(N)=O)NC(=O)[C@H](CCC(N)=O)NC(=O)[C@H](CCCCN)NC(=O)[C@@H](NC(=O)[C@H](Cc1ccc(O)cc1)NC(=O)[C@H](CCCCN)NC(=O)[C@@H]1CCCN1C(=O)[C@@H](N)CS)C(C)C)[C@@H](C)O)C(=O)N[C@@H](C)C(=O)N[C@H](C(=O)NCC(=O)O)[C@@H](C)O [Peptide 852.01] |  |  |  |  |  |  | 7.50 | 8.54 | 7.52 | 5.15 | 7.41 | 7.18 |  |
| AAFAAAAAQRLFA-NH2 [Peptide 761.01] | 8.64 | 8.92 | 7.52 | 5.48 | 6.26 | 8.12 |  |  |  |  |  |  |  |
